Consider 28 molecules from ChEMBL document CHEMBL1144544, “Solid-phase synthesis of a combinatorial library of dihydroceramide analogues and its activity in human alveolar epithelial cells” (Bioorg Med Chem, 2007).

Each structure is given as a SMILES string. Activity calls are given as the source filed them. No cut-off for these calls is given here.

Series [1] concerns A549. Nature of the series: Cytotoxicity against human A549 cells upto 1 mM in presence of 10% FBS after 72 hrs by MTT test. The class given is cell-based. The note with it: a549, 72 h.
For series [2], the system named is A549. The experiment in a line: Cytotoxicity against human A549 cells after 72 hrs by MTT test. The following applies: A549, 72 h. It is filed as cell-based.
The subject of series [3] is A549. The experiment in a line: Cell cycle arrest in human A549 cells by accumulation at G0/G1 phase after 72 hrs relative to control by flow cytometry. It is filed as functional. More on the design: concentration or dose not given beside the values. For orientation: In flow cytometry, cells or beads pass a laser one at a time.
Series [4] has as its system A549. The experiment in a line: Cell cycle arrest in human A549 cells by accumulation at S phase after 72 hrs relative to control by flow cytometry. The class given is functional. Further details: concentration or dose not given beside the values.
Series [5] concerns A549. Nature of the series: Cell cycle arrest in human A549 cells by accumulation at G2 phase after 72 hrs relative to control by flow cytometry. More on the design: concentration or dose not given beside the values. It is filed as functional.
Series [6] concerns A549. The experiment in a line: Cell death of human A549 cells assessed as increase in number of apoptotic cells by annexin V and propidium iodide staining by flow cytometry. It is filed as functional, cell-based.
Series [7] concerns A549. The experiment in a line: Cytotoxicity against human A549 cells at 1 mM after 72 hrs by MTT test. The following applies: a549, 72 h, 1000 µM. It is filed as cell-based. (In general: Tetrazolium dyes change colour on reduction, which living cells bring about.)
Series [8] concerns A549. Nature of the series: Cytotoxicity against human A549 cells in presence of 10% FBS after 72 hrs by MTT test. The class given is cell-based. The following applies: a549, 72 h.
The subject of series [9] is A549. Nature of the series: Cytotoxicity against human A549 cells upto 1 mM in presence of <=5% FBS after 72 hrs by MTT test. It is filed as cell-based. The following applies: a549, 72 h.

The term IC50 denotes the midpoint of a concentration-inhibition curve.

With `CCCCCCCCCCCCCCC[C@@H](O)[C@H](CO)NC(=O)CCCCC`, the Activity result in the series with A549 [1] was “Not Active”.
In the series with A549 [2], `CCCCCCCc1ccc(C(=O)N[C@@H](CO)C(O)CCCCCC)cc1` (some centres not stated) yielded an IC50 of 20 µM. The Activity came out at 86.5% in the series with A549 [3], 8.1% in the series with A549 [4] and 5.4% with A549 [5].
As for `CCCCCCC(O)[C@H](CO)NC(=O)CC(C)C` (some centres not stated), the IC50 with A549 [2] worked out at 302 µM.
Regarding `CCCCCCCCCCCCC(O)[C@H](CO)NC(=O)c1ccc2ccccc2c1` (some centres not stated), the Activity in the series on A549 [3] is 90.4%; in the series with A549 [4], 7.4%; in the series with A549 [5], 2.2%.
`O=C(N[C@@H](CO)C(O)c1ccccc1)c1ccc2ccccc2c1` (some centres not stated) had an IC50 in the series on A549 [2] of 580 µM.
Turning to `CCCCCCCCC(O)[C@H](CO)NC(=O)c1ccc(CCCCCCC)cc1` (some centres not stated), in the series on A549 [2], the concentration for half-maximal inhibition (IC50) is 20 µM. For the same molecule, in the series on A549 [6], the result was Active. Besides, the Activity in the series with A549 [3] worked out at 92.6%; with A549 [4], 3.4%; with A549 [5], 4%.
As to `O=C(N[C@@H](CO)C(O)c1ccccc1)c1ccccc1` (some centres not stated), the IC50 in the series with A549 [2] came to 689 µM.
Consider `CCCCCCCCC(O)[C@H](CO)NC(=O)c1ccc2ccccc2c1` (some centres not stated), for which the Activity in the series on A549 [3] was determined as 91.2%; with A549 [4] it was 5.4%; with A549 [5], 3.4%.
In the series on A549 [2], `COc1ccc(CC(=O)N[C@@H](CO)C(C)O)cc1OC` (some centres not stated) came in with an IC50 of 410 µM.
The same measure, in the same setting: for `CCCCCCCc1ccc(C(=O)N[C@@H](CO)C(O)c2ccccc2)cc1` (some centres not stated) the value was 20 µM.
Consider `CC(C)CC(=O)N[C@@H](CO)C(O)c1ccccc1` (some centres not stated), for which the Activity entry with A549 [7] is given as “Non-toxic”.
`CCCCCCCCCCCCC(O)[C@H](CO)NC(=O)c1ccccc1` (some centres not stated): the figures for the Activity with A549 [3], in the series on A549 [4] and with A549 [5] were 83%, 12.8% and 4.2%, respectively.
In turn, `CCCCCCCCCCCCC(O)[C@H](CO)NC(=O)Cc1ccc(OC)c(OC)c1` (some centres not stated) came in with a 50% inhibitory concentration (IC50) with A549 [2] of 20 µM. Besides, the Activity in the series with A549 [3] is listed as 86.5%; in the series with A549 [4], 5.4%; with A549 [5], 7%.
Regarding `CCCCCCC(O)[C@H](CO)NC(=O)c1ccccc1` (some centres not stated), in the series on A549 [2], the half-maximal inhibitory concentration (IC50) turned out to be 290 µM.
For `CC(O)[C@H](CO)NC(=O)CCC1CCCC1` (some centres not stated), in the series with A549 [7], the Activity entry is on record as “Non-toxic”.
With `O=C(CCC1CCCC1)N[C@@H](CO)C(O)c1ccccc1` (some centres not stated), the IC50 in the series on A549 [2] was determined as 597 µM.
`CCCCCCCCC(O)[C@H](CO)NC(=O)Cc1ccc(OC)c(OC)c1` (some centres not stated): the Activity is reported as 84% in the series on A549 [3], 10.5% in the series with A549 [4] and 5.5% with A549 [5].
As to `CC(O)[C@H](CO)NC(=O)c1ccc2ccccc2c1` (some centres not stated), in the series with A549 [7], the Activity entry is on record as “Non-toxic”.
As to `CCCCCCCCCCCCCCC[C@@H](O)[C@H](CO)NC(=O)c1ccc(CCCCCCC)cc1`, in the series with A549 [6], the result was inactive.
With `CCCCCCCCCCCCC(O)[C@H](CO)NC(=O)CC(C)C` (some centres not stated), the Activity came out at 89.8% in the series with A549 [3], 5.2% in the series on A549 [4] and 4.4% in the series with A549 [5].
Consider `CCCCCCCCCCCCC/C=C/[C@@H](O)[C@H](CO)NC(=O)CCCCC`, for which the Activity result was “Dose-dependent effect” in the series with A549 [8] and “Non-toxic” in the series on A549 [9]. In the series with A549 [2], this molecule came in with an IC50 of 35 µM.
For `CCCCCCCCC(O)[C@H](CO)NC(=O)CC(C)C` (some centres not stated), the Activity in the series on A549 [3] is 84.5%; with A549 [4], 10.5%; with A549 [5], 5%.
On the same counts, the results for `CCCCCCCCCCCCC(O)[C@H](CO)NC(=O)c1ccc(CCCCCCC)cc1` (some centres not stated) are 88.2%, 7.4% and 4.4%.
With `CC(O)[C@H](CO)NC(=O)c1ccccc1` (some centres not stated), the Activity result in the series with A549 [7] is on record as “Non-toxic”.
`CCCCCCCCC(O)[C@H](CO)NC(=O)CCC1CCCC1` (some centres not stated): the Activity was found to be 94.4% with A549 [3], 3.4% in the series with A549 [4] and 2.2% with A549 [5].
On to `CC(C)CC(=O)N[C@@H](CO)C(C)O` (some centres not stated), for which the Activity entry in the series on A549 [7] is “Non-toxic”.
`CCCCCCCCC(O)[C@H](CO)NC(=O)c1ccccc1` (some centres not stated): the figures for the Activity in the series on A549 [3], with A549 [4] and with A549 [5] were 89.6%, 8.4% and 2%, respectively.
For the molecule `CCCCCCCCCCCCCCC[C@H](O)[C@H](CO)NC(=O)c1ccc(CCCCCCC)cc1`, the midpoint of inhibition in the series with A549 [2], the IC50, lay at 108 µM. In addition, in the series on A549 [6], the outcome was Active. Also, the values for the Activity with A549 [3], in the series on A549 [4] and in the series on A549 [5] were 83.1%, 11.5% and 5.4%, respectively.
